In publication PMC3606385 (PLoS ONE, 2013):
“And” between values parts separate entries of the source, which are not always exact repeats. Equal entries are not always repeated. Where two headings read alike, the source gives them in different places.

Assays:
Human 11β-HSD2 = molecular target: T1, Human 11β-HSD2 (Homo sapiens, UniProt P80365); experiment: 11β-HSD2 assay in human kidney microsomes; assay type: biochemical; details: human kidney microsomes
T1 construct: tissue Gentest (Woburn, MA); host or cells: human kidney microsomes
T1 sequence (P80365 1-405): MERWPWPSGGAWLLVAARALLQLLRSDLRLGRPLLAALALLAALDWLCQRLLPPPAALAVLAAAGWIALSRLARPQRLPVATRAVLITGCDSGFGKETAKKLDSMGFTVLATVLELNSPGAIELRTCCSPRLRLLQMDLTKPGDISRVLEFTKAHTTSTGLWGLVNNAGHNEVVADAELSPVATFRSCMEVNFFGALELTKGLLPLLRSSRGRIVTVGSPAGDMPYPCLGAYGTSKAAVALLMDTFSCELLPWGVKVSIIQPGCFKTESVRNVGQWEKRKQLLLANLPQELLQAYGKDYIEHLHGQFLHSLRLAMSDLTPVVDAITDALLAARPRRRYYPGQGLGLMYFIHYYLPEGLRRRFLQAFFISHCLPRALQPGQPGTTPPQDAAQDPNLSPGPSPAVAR
Method: The rat and human kidney microsomes were used for 11β-HSD2 sources. 11β-HSD2 activity was performed in the microsome according to a previously described method. In brief, the assay tubes contained 25 nM substrate CORT (for rat) or cortisol (for human), spiked with 30,000 cpm their respective ^3H-11β-hydroxyl steroid, 0.2 mM NAD+ and 0.1 mM DTT in the PBS buffer. 8 (rat) or 20 (human) µg kidney microsomes were added to each tube to initiate the reaction and the reaction mixture was incubated for up to 3 hrs, during which the reaction is within the linear range. The rest procedure was similar to 11β-HSD1 assay. The percentage conversion of CORT to 11DHC or cortisol to cortisone was calculated by dividing the radioactive counts identified as 11keto-steroids by the total counts.
(§1) The IC50 was determined by adding different concentrations of each compound in the 11β-HSD1 or 11β-HSD2 reaction as described. The mode of inhibition was assayed by adding various concentrations of steroid substrates in the presence of an inhibitor as described.

[1] = molecular target: T2, rat liver microsomal 11β-HSD1 (Rattus norvegicus, UniProt P16232); experiment: Mode of inhibition (Lineweaver-Burk), rat liver microsomal 11β-HSD1; assay type: biochemical; details: Lineweaver-Burk plot, substrate 11DHC
T2 construct: Rat liver, testis and kidney microsomes were prepared as described previously; from tissue; host or cells: rat liver microsomes
Method: The rat testis and liver or human liver microsomes were used for 11β-HSD1 assay. 11β-HSD1 activity was performed in the microsome according to a previously described method. In brief, the assay tubes contained 25 nM substrate 11DHC (for rat) or cortisone (for human), spiked with 30,000 cpm their respective ^3H-11keto-steroid, 0.2 mM NADPH and 5 mM glucose-6-phosphaare in the PBS buffer. 2 µg microsomes were added to each tube to initiate the reaction and the reaction mixture was incubated for up to 2 hrs, during which the reaction is within the linear range. The rest procedure was similar to 11β-HSD1 assay in intact cells.
as §1
Enzyme data were subjected to nonlinear analysis by GraphPad (Version 5, GraphPad Software Inc., San Diego, CA) for IC50. Lineweaver-Burk plot was used for the mode of inhibition. Data were subjected to analysis by one-way ANOVA followed by Tukey's multiple comparisons testing to identify significant differences between groups when three were calculated. Differences were regarded as significant at P<0.05.

diabetic rats = details: normal or high fat diet; cited from earlier work
Rat 11β-HSD1 = molecular target: T3, Rat 11β-HSD1 (Rattus norvegicus, UniProt P16232); experiment: 11β-HSD1 assay in intact rat Leydig cells; assay type: cell-based
T3 construct: endogenous in cells; host or cells: primary adult Sprague-Dawley rat Leydig cells
Method: Rat Leydig cells contain the highest 11β-HSD1 activity in all cell types of rat tissues, and were used for rat 11β-HSD1 enzyme sources. Purified rat Leydig cells were obtained from 90-day-old Sprague-Dawley rats by collagenase digestion of the testes followed by Percoll density centrifugation of the cell suspension, according to the previously described method. […] The purity of cell fractions was evaluated by histochemical staining for 3β-hydroxysteroid dehydrogenase activity with […] etiocholanolone as the steroid substrate.
11β-HSD1 reductase activity was performed in intact cells using endogenous cofactor NADPH as described previously. […] 25×10^3 cells were added to each tube to initiate the reaction and the reaction mixture was incubated for up to 2 hrs, during which the reaction is within the linear range. At the end of reaction, the reaction was stopped by adding 2 ml ice-cold ether. The steroids were extracted, and the organic layer was dried under nitrogen. The steroids were separated chromatographically on thin layer plates in chloroform and methanol (90∶10, v/v), and the radioactivity was measured using a scanning radiometer (System AR2000, Bioscan Inc., Washington, DC) as described previously. The percentage conversion of 11DHC to CORT or cortisone to cortisol was calculated by dividing the radioactive counts identified as 11-OH-steroids by the total counts.
as §1

T3 sequence (P16232 whole entry): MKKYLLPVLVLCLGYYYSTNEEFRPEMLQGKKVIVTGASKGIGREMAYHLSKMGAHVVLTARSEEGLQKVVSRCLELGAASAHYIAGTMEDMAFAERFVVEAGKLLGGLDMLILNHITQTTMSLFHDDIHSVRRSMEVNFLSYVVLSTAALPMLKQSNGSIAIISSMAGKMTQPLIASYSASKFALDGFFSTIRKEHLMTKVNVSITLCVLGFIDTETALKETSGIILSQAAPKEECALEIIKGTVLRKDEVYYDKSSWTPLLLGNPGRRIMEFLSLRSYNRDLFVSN
T2 sequence (P16232 whole entry): as above

COc1cc(/C=C/C(=O)CC(=O)/C=C/c2ccc(O)c(OC)c2)ccc1O [1 (Curcumin), Curcumin]
IC50 (Human 11β-HSD2; read-out: IC50 (nM) Human 11β-HSD2): 14600 nM
IC50 (Human 11β-HSD2; read-out: IC50 human 11β-HSD2): 14600 nM
Mode of inhibition of rat 11β-HSD1 [1]: competitive inhibitor
Effect on serum Tg (diabetic rats): remarkably reduced
Effect on serum cholesterol (diabetic rats): remarkably reduced
IC50 (Rat 11β-HSD1; intact adult rat Leydig cells, read-out: IC50 rat 11β-HSD1 in intact cells): 5790 nM and 2290 nM and 2000 to 6000 nM
IC50 (Rat 11β-HSD1; intact rat Leydig cells, read-out: Rat 11β-HSD1 IC50 (nM) in Leydig cells): 5790 nM
